Each structure is given as a SMILES string. Where “and” joins values, the source holds several entries; their conditions need not be identical. Identical values can stand only once.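 Values below derive from 48-hour exposures of cells grown in 96-well plates, with endpoints linearly interpolated between the two concentrations bracketing the appropriate inhibition level. The concentration for 50% growth inhibition is given as GI50. TGI is the concentration that stops growth completely.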 Some results are limits rather than exact numbers.

Results on eight compounds are retold here after PubChem BioAssay (NCI).

Holding throughout (assay): growth of human tumour cells (NCI), 48 h
For experiment [1], the system named is HCT-116 colon.
Experiment [2] relates to MALME-3M melanoma.
Experiment [3] concerns SK-MEL-2 melanoma.
Experiment [4] concerns K-562 leukemia.
For experiment [5], the system named is CAKI-1 renal.
Experiment [6] concerns SNB-75 CNS.
Experiment [7] concerns UACC-257 melanoma.
Experiment [8] has as its system SR leukemia.
For experiment [9], the system named is PC-3 prostate.
Experiment [10] relates to TK-10 renal.

On to `N#Cc1c2c(c(-c3cccs3)n(C3OC(CO)C(O)C(O)C3O)c1=S)CCc1ccccc1-2` (stereo not given), for which the GI50 in experiment [1] is 7.39 µM and 15.5 µM; in [6], 3.49 µM and 1.55 µM. Also, the TGI was over 100 µM in experiment [1]; over 100 µM in experiment [2]; over 100 µM in experiment [3]; over 100 µM in experiment [4]; over 100 µM in experiment [5]; > 29.3 µM and 12.7 µM in experiment [6]. The TGI in [7], in experiment [8], in experiment [9] and in experiment [10] was over 100 µM throughout.
For the compound `O=C(CCl)Nc1cc(O)c2c(c1)C(=O)c1cccc(O)c1C2=O`, the GI50 is 0.646 µM in [1]; 0.897 µM in experiment [2]; 1.49 µM in experiment [3]; 0.353 µM in experiment [4]; 1.56 µM in experiment [5]; 1.21 µM in experiment [6]. In addition, the GI50 in experiment [7] was 2.52 µM; in experiment [8], 0.346 µM; in experiment [9] it was 1.57 µM; in [10] it was 1.97 µM. Also, the TGI in [1] was found to be 2.12 µM; in [2] it was 2.58 µM; in experiment [3], 3.93 µM; in experiment [4], 4.22 µM; in [5] it was 2.93 µM; in [6], 3.2 µM. Also, the TGI turned out to be 6.41 µM in [7], 2.86 µM in experiment [8], 3.95 µM in experiment [9] and 3.39 µM in experiment [10].
As for `COc1ccc2c(c1)CC[C@@H]1[C@@H]2CC[C@]2(C)C=C(/C=C/C(=O)c3ccccc3)C[C@@H]12`, the GI50 was 15.6 µM in experiment [1]; 14 µM in [2]; 21 µM in [3]; 18.5 µM in experiment [4]; 20.3 µM in experiment [5]; 12.2 µM in [6]. Also, the GI50 in experiment [7] was 16.2 µM; in experiment [8] it was 16.6 µM; in [9], 15.4 µM; in [10] it was 21.3 µM. The TGI in [1] came to 29.1 µM; in [2], 30.1 µM; in experiment [3], 41.5 µM; in experiment [4] it was 46.4 µM; in experiment [5], 38.3 µM; in experiment [6] it was 25.2 µM. The TGI was 34.6 µM in experiment [7], 47.4 µM in [8], 30.5 µM in experiment [9] and 39.3 µM in [10].
For the compound `CCCn1c(N)c(C(=O)CNc2ccc(I)cc2)c(=O)[nH]c1=O`, the GI50 was 0.677 µM in experiment [1]; 45.6 µM in experiment [2]; over 100 µM in [3]; 6.53 µM in experiment [5]; 2.12 µM in [6]; 0.378 µM in experiment [8]. Besides, the GI50 in experiment [9] is 5.44 µM; in experiment [10], 16.7 µM. In addition, the TGI was over 100 µM in experiment [1]; over 100 µM in experiment [2]; over 100 µM in experiment [3]; over 100 µM in [4]; over 100 µM in experiment [5]; over 40.1 µM in experiment [6]. For the same compound, the TGI in experiment [7] was over 100 µM; in [8], 28.3 µM; in experiment [9], over 100 µM; in [10] it was over 100 µM.
For `O=C1c2ccn(CCCCN3CCC(O)CC3)c2C(=O)c2c1c(O)c1ccccc1c2O`, the GI50 is 1.84 µM in [1]; 16.5 µM in experiment [2]; 2.45 µM in [3]; 1.77 µM in experiment [4]; 13.9 µM in experiment [5]; 42.6 µM in experiment [6]. The GI50 in experiment [7] is 17.3 µM; in [8], over 100 µM; in [9] it was 1.35 µM; in experiment [10], 1.65 µM. The TGI is 41.8 µM in [2]; 8.32 µM in experiment [3]; over 100 µM in experiment [4]; 43.7 µM in experiment [5]; over 61.2 µM in [6]; over 64.1 µM in experiment [7]. Also, the values for the TGI in experiment [8], in experiment [9] and in [10] were over 100 µM, 3.16 µM and 3.36 µM, respectively.
With `CC[C@H](NC(=O)[C@H](CS(=O)(=O)CC1CC1)N[C@@H](c1ccc(F)cc1)C(F)(F)F)C(=O)C(=O)NC1CC1`, the GI50 in [1], in experiment [2], in experiment [3], in experiment [4], in experiment [5] and in experiment [6] was over 100 µM throughout. Besides, the GI50 in experiment [7] was over 100 µM; in experiment [8] it was 98.4 µM; in experiment [9], over 100 µM; in experiment [10], over 100 µM. The TGI in experiment [1], in experiment [2], in experiment [3], in experiment [4], in [5] and in experiment [6] was over 100 µM each time. Moreover, the TGI in [7], in experiment [8], in [9] and in experiment [10] was over 100 µM each time.
Turning to `CO[C@H](C(=O)O)[C@@H]1Cc2cc3cc(OC4CC(OC5CC(O)C(O)C(C)O5)C(O)C(C)O4)c(C)c(O)c3c(O)c2C(=O)[C@H]1OC1CC(OC2CC(OC3CC(C)(O)C(O)C(C)O3)C(O)C(C)O2)C(O)C(C)O1` (stereo not given in full), the GI50 in experiment [1] is 0.132 µM; in experiment [2], 0.205 µM; in experiment [3], 0.335 µM; in experiment [4] it was 0.303 µM; in experiment [5] it was 0.598 µM; in experiment [6] it was 0.128 µM. For the same compound, the GI50 in experiment [7] is 0.38 µM; in [8], 0.133 µM; in experiment [9], 0.348 µM; in experiment [10], 1.45 µM. For the same compound, the TGI is over 32.5 µM in experiment [1]; 1.4 µM in [2]; 1.56 µM in experiment [3]; over 32.5 µM in experiment [4]; over 32.5 µM in experiment [5]; 0.741 µM in [6]. The TGI is over 32.5 µM in [7], 8.37 µM in experiment [8], over 32.5 µM in experiment [9] and over 32.5 µM in experiment [10].
With `N=C(N)SCCc1ccccn1`, the TGI in experiment [1], in [2], in experiment [3], in experiment [4], in experiment [5] and in experiment [6] was over 100 µM in each case. Besides, the TGI in experiment [7], in [8], in [9] and in experiment [10] was over 100 µM throughout. For the same compound, the GI50 in experiment [6] was 39.7 µM and > 100 µM.
